Peptide text beside a SMILES is read from it.
Assays:
[1] = system: isolated rat hearts, ischemia/reperfusion injury; assay: Infarct size (TTC staining) after ischemia/reperfusion in isolated rat hearts
Method: Hearts were excised from 2 month-old Sprague-Dawley rats and subjected to Langendorff-mode perfusion with oxygenated Kreb's buffer. Following a 20 min equilibration to attain stable beating hearts either were perfused continuously for 110 minutes (Con) or were subjected to 20 minutes of global no-flow ischemia and then 90 minutes of oxygenated reperfusion (IR). For groups receiving the δPKC-dF1Fo inhibitor or facilitator peptides (complete amino acid sequences shown in FIG. 13) 20 nM concentrations of the peptides were given at the onset of the 90 minute reperfusion period for 20 minutes. At the termination of experimentation atria were removed and ventricles were rapidly washed in chilled Kreb's buffer and partially frozen to facilitate cutting the hearts into sections. […]
Histograms represent mean±S.E. infarction expressed as a percentage of the entire left ventricular area. […]
The effects of the peptides of the present invention on infarct size following IR injury in the Langendorff model was assessed, Hearts were perfused in the absence of peptide, under normoxic conditions for 110 minutes (Con), or were given a 20 minute global, no flow, ischemia exposure followed by normoxic perfusion for 90 minutes. δPKC-dF1Fo modulatory peptides (20 nM) were administered at the onset of reperfusion for 20 minutes. […]

δPKC binding to dF1Fo = target: T1, δPKC binding to dF1Fo (Rattus norvegicus, UniProt P09215); assay: PKC overlay binding assay; settings: overlay with purified PKC isozymes, DG/PS; read-out: IC50 for modulation of δPKC-dF1Fo binding
T1 construct: with purified rat brain PKC (mixture of PKC isozymes); from tissue; host or cells: PKC from rat brain; F1Fo ATPase holo-enzyme from adult rat cardiac ventricle

myocardial ATP levels = assay: Myocardial ATP levels in hearts of streptozotocin-treated rats; settings: hearts 6 weeks after STZ injection (50 mg/kg)
[2] = system: mitochondrial δPKC levels; assay: Mitochondrial δPKC levels (Western blot) in hearts of streptozotocin-treated rats; settings: hearts 6 weeks after STZ injection (50 mg/kg)
δPKC-dF1Fo co-IP = target: T2, δPKC-dF1Fo co-IP (Rattus norvegicus, UniProt P09215); assay: δPKC co-immunoprecipitation with dF1Fo in NCM mitochondria after phorbol ester; assay type: cell-based; settings: 100 nM 4-β PMA, 20 min, NCMs
T2 construct: endogenous in cells; host or cells: neonatal rat cardiac myocytes (NCMs), isolated mitochondria
Method: FIGS. 1A-1B: Delta protein kinase C (δPKC) co-immunoprecipitates (co-IPs) with the “d” subunit of F1Fo ATP synthase (dF1Fo) following 100 nM 4-β PMA treatment. Neonatal cardiac myocytes (NCMs) were treated with 100 nM 4-α PMA (0 nM in Figure), 3 nM 4-β PMA for 1 hr. or 100 nM 4-β PMA for 20 min. Mitochondria were isolated using Percoll/Optiprep density gradients and then subjected to immunoprecipitations using antisera to dF1Fo. IPs were resolved by […] and transferred onto nitrocellulose paper (NCP) followed by Western blot analyses using antisera against αPKC, δPKC, εPKC and ζPKC. FIG. 1A, representative autoradiographs for each PKC isozyme are shown. FIG. 1B, mean±S.E. densitometry values for three independent myocyte preparations. Asterisks indicate significant differences between 4-α PMA and 3 nM or 100 nM 4-β PMA (p<0.05). # indicates statistically significant differences between 3 and 100 nM 4-β PMA (p<0.05).
Phorbol esters such as 4-β phorbol 12-myristate-13-acetate (4-β PMA), are well known activators of most PKC isozymes and should be useful in determining if one or more PKC isozymes induced effects on the F1Fo complex. […] In FIG. 1, 4-α PMA is shown as “0” concentration and […] values are reported for 3-100 nM concentrations. IPs were next subjected to Western blot analyses with anti-PKC isozyme-selective antisera. […]

T1 sequence (P09215 whole entry): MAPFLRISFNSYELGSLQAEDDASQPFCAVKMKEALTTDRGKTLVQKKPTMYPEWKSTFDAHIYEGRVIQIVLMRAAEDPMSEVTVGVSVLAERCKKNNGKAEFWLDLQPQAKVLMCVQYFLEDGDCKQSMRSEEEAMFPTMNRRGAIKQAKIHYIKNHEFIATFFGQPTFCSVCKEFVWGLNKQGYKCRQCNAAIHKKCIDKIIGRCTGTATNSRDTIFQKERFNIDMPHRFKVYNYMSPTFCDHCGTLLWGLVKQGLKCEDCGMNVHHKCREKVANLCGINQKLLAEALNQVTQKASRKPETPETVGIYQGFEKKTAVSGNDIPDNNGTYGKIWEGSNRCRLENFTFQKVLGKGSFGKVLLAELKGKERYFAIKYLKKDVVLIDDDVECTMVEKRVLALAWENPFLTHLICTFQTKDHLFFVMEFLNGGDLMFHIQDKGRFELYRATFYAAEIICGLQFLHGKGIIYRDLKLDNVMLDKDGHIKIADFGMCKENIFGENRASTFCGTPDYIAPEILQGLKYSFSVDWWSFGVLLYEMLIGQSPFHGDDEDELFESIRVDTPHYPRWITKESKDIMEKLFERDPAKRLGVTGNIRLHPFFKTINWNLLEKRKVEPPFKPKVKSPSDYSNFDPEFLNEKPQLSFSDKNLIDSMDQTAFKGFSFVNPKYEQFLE
T2 sequence (P09215 whole entry): as above
T2 sequence (P31399 2-161 partner limits assumed): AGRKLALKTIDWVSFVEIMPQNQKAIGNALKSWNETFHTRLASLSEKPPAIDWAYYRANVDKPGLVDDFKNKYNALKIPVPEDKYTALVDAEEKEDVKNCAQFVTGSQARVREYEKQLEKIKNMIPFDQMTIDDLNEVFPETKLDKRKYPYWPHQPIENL

Work on “YGRKKRRQRRR-MLATRALSLIGKRAISTSVC-RVRE YEKQLEKIKNMI-DYKDDDDK (YGRKKRRQRRRMLATRALSLIGKRAISTSVCRVREYEKQLEKIKNMIDYKDDDDK; sequence of mitochondrial-targeted facilitator of dPKC-dF1Fo interaction) [PKC-dF1Fo agonist peptide]” yielded an enhancement of infarction [1] of 27±3%.

CC[C@H](C)[C@H](NC(=O)[C@@H](NC(=O)[C@H](CCCCN)NC(=O)[C@H](CC(C)C)NC(=O)[C@H](C)NC(=O)[C@H](CC(C)C)NC(=O)[C@H](CCCCN)NC(=O)[C@H](CCCNC(=N)N)NC(=O)CNC(=O)[C@H](C)N)[C@@H](C)O)C(=O)N[C@@H](CC(=O)O)C(=O)N[C@@H](Cc1c[nH]c2ccccc12)C(=O)N[C@H](C(=O)N[C@@H](CO)C(=O)N[C@@H](Cc1ccccc1)C(=O)O)C(C)C [SEQ ID NO: 1, AGRKLALKTIDWVSF] (H-AGRKLALKTIDWVSF-OH; N-terminus and C-terminus assumed) showed an IC50 (δPKC binding to dF1Fo) of ~300 µM.

In the case of CC[C@H](C)[C@H](NC(=O)[C@H](CCSC)NC(=O)[C@H](CC(N)=O)NC(=O)[C@H](CCCCN)NC(=O)[C@@H](NC(=O)[C@H](CCCCN)NC(=O)[C@H](CCC(=O)O)NC(=O)[C@H](CC(C)C)NC(=O)[C@H](CCC(N)=O)NC(=O)[C@H](CCCCN)NC(=O)[C@H](CCC(=O)O)NC(=O)[C@H](Cc1ccc(O)cc1)NC(=O)[C@H](CCC(=O)O)NC(=O)[C@H](CCCNC(=N)N)NC(=O)[C@@H](NC(=O)[C@@H](N)CCCNC(=N)N)C(C)C)[C@@H](C)CC)C(=O)O [SEQ ID NO: 2, RVREYEKQLEKIKNMI] (H-RVREYEKQLEKIKNMI-OH; N-terminus and C-terminus assumed), the IC50 (δPKC binding to dF1Fo) is reported as ~300 µM.

In the case of CN(N=O)C(=O)N[C@H]1C(O)O[C@H](CO)[C@@H](O)[C@@H]1O (mixture of isomers) [STZ, streptozotocin], the “decrease of myocardial ATP levels” value (myocardial ATP levels) is reported as 2.3±0.1 fold and the “increase in mitochondrial δPKC levels” value [2] is reported as “greater than 10 fold”.

With CCCCCCCCCCCCCC(=O)O[C@@H]1[C@@H](C)[C@@]2(O)[C@@H](C=C(CO)C[C@]3(O)C(=O)C(C)=C[C@@H]23)[C@@H]2C(C)(C)[C@]12OC(C)=O [4-β PMA, 4-β phorbol 12-myristate-13-acetate] the “increase of δPKC-dF1Fo co-IP above 3 nM 4-β PMA-induced levels” value (δPKC-dF1Fo co-IP) was 3.4±0.3 fold.

— patent publication US8754051B2, “Peptide modulators of the δPKC interaction with the d subunit of F1Fo ATP synthase/ATPase and uses thereof” (Georgia Regents Research Institute, Inc., priority 2009, dated 2014)
